The experiment addresses T1, human V1a receptor (Homo sapiens, UniProt P37288).
T1 construct: expressed in transfected cells; host or cells: HEK293 cells, transiently transfected; membrane preparation
Kind of experiment: V1a activity: human V1a receptor binding (3H-Vasopressin SPA, HEK293 membranes). The following applies: membranes of HEK293 cells transiently transfected with human V1a receptor, Ki by Cheng-Prussoff equation, read-out: pKi hV1a (converted). On the procedure: The human V1a receptor was cloned by RT-PCR from total human liver RNA. The coding sequence was subcloned in an expression vector after sequencing to confirm the identity of the amplified sequence. […] Cell membranes were prepared from HEK293 cells transiently transfected with the expression vector and grown in 20 liter fermenters with the following protocol.
50 g of cells were resuspended in 30 ml freshly prepared ice cold Lysis buffer (50 mM HEPES, 1 mM EDTA, 10 mM MgCl2 adjusted to pH=7.4+complete cocktail of protease inhibitor (Roche Diagnostics)); homogenized with Polytron for 1 min; and sonicated on ice for 2×2 minutes at 80% intensity (Vibracell sonicator). The preparation was centrifuged 20 min at 500 g at 4° C., the pellet was discarded and the supernatant centrifuged 1 hour at 43′000 g at 4° C. (19′000 rpm). The pellet was resuspended in 12.5 ml Lysis buffer+12.5 ml Sucrose 20% and homogenized using a Polytron for 1-2 min. The protein concentration was determined by the Bradford method, and aliquots were stored at −80° C. until use. For binding studies 60 mg Yttrium silicate SPA beads (Amersham) were mixed with an aliquot of membrane in binding buffer (50 mM Tris, 120 mM NaCl, 5 mM KCl, 2 mM CaCl2, 10 mM MgCl2) for 15 minutes with mixing. 50 ul of bead/membrane mixture was then added to each well of a 96 well plate, followed by 50 ul of 4 nM 3H-Vasopressin (American Radiolabeled Chemicals). For total binding measurement 100 ul of binding buffer were added to the respective wells, for non-specific binding 100 ul of 8.4 mM cold vasopressin and for compound testing 100 ul of a serial dilution of each compound in 2% DMSO. The plate was incubated 1 h at room temperature, centrifuged 1 min at 1000 g and counted on a Packard Top-Count. Non-specific binding counts were subtracted from each well and data was normalized to the maximum specific binding set at 100%. To calculate an IC 50 the curve was fitted using a non-linear regression model (XLfit), and the Ki was calculated using the Cheng-Prussoff equation.
T1 sequence (P37288 whole entry): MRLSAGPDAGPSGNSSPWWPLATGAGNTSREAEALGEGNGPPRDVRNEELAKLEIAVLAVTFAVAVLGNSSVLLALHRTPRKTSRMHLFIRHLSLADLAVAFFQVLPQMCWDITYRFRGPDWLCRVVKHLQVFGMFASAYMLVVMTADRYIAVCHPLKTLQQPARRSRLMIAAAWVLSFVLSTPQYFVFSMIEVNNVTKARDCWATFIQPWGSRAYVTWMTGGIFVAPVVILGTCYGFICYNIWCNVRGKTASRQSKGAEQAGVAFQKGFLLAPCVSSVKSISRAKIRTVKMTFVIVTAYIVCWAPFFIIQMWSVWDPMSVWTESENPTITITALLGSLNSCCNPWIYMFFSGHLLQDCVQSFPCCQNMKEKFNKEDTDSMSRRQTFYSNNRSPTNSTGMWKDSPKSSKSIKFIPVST
Take `O=C(c1ccc(Cl)c(Cl)c1)N1CCC2(CCc3ccccc32)CC1` [Example 42, 1′-(3,4-Dichlorobenzoyl)-2,3-dihydrospiro[indene-1,4′-piperidine]]: the Ki is 0.112 µM.

For `O=C1OC2(CCN(C(=O)c3ccc(Cl)c(Cl)c3)CC2)c2ccccc21` [Example 6, 1′-(3,4-Dichlorobenzoyl)-3H-spiro[2-benzofuran-1,4′-piperidin]-3-one], the Ki is 0.0191 µM.

`O=C(c1ccc2ccccc2c1)N1CCC2(CC1)C(=O)Nc1ccc(Br)cc12` [Example 33, 5-Bromo-1′-(2-naphthoyl)spiro[indole-3,4′-piperidin]-2(1H)-one]: the Ki was 0.11 µM. For `COc1cc(C(=O)N2CCC3(CC2)OCc2ccccc23)c2[nH]ccc2c1` [Example 27, 1′-[(5-Methoxy-1H-indol-7-yl)carbonyl]-3H-spiro[2-benzofuran-1,4′-piperidine]], the Ki is 0.0501 µM. Then `COc1ccc2c(c1)C1(CCN(C(=O)c3ccc4ccccc4c3)CC1)OC2=O` [Example 1, 6-Methoxy-1′-(2-naphthoyl)-3H-spiro[2-benzofuran-1,4′-piperidin]-3-one], with 0.00832 µM. The result for `CC(C)(C)c1ccc(C(=O)N2CCC3(CC2)OCc2ccccc23)cc1` [Example 25, 1′-(4-tert-Butylbenzoyl)-3H-spiro[2-benzofuran-1,4′-piperidine]] reads 0.0631 µM; that for `O=C1OC2(CCN(C(=O)c3ccc(Cl)c(Cl)c3)CC2)c2cc(OCCO)ccc21` [Example 12, 1′-(3,4-Dichlorobenzoyl)-6-(2-hydroxyethoxy)-3H-spiro[2-benzofuran-1,4′-piperidin]-3-one], 0.0219 µM. Then `O=C(c1ccc2ccccc2c1)N1CCC2(C=Cc3ccccc32)CC1` [Example 36, 1′-(2-Naphthoyl)spiro[indene-1,4′-piperidine]], with 0.0891 µM; and `O=C1OC2(CCN(C(=O)c3ccc(Cl)c(Cl)c3)CC2)c2ccc(F)cc21` [Example 11, 1′-(3,4-Dichlorobenzoyl)-5-fluoro-3H-spiro[2-benzofuran-1,4′-piperidin]-3-one], with 0.0295 µM; and `COc1ccc2c(c1)C(=O)OC21CCN(C(=O)c2ccc(Cl)c(Cl)c2)CC1` [Example 9, 1′-(3,4-Dichlorobenzoyl)-5-methoxy-3H-spiro[2-benzofuran-1,4′-piperidin]-3-one], with 0.0479 µM.

Take `COc1ccc2c(c1)C1(CCN(C(=O)c3ccc(Cl)c(Cl)c3)CC1)OC2=O` [Example 7, 1′-(3,4-Dichlorobenzoyl)-6-methoxy-3H-spiro[2-benzofuran-1,4′-piperidin]-3-one]: the Ki is 0.0288 µM.

The values are drawn from US20080153862A1, “SPIROPIPERIDINE DERIVATIVES” (priority 2006, published 2008).
